Results: BindingDB's records for patent WO2022098806 (MERCK SHARP & DOHME LLC, 2022)
Values joined by “and” are separate entries in the source; they are usually repeats but may differ in a detail not shown here. Equal values may be shown once.

Molecular target: Mitogen-activated protein kinase kinase kinase kinase 1 (Homo sapiens, UniProt Q92918)
Test: HPK1-SLP76 TR-FRET ASSAY

Chain of Mitogen-activated protein kinase kinase kinase kinase 1 (Q92918 whole entry): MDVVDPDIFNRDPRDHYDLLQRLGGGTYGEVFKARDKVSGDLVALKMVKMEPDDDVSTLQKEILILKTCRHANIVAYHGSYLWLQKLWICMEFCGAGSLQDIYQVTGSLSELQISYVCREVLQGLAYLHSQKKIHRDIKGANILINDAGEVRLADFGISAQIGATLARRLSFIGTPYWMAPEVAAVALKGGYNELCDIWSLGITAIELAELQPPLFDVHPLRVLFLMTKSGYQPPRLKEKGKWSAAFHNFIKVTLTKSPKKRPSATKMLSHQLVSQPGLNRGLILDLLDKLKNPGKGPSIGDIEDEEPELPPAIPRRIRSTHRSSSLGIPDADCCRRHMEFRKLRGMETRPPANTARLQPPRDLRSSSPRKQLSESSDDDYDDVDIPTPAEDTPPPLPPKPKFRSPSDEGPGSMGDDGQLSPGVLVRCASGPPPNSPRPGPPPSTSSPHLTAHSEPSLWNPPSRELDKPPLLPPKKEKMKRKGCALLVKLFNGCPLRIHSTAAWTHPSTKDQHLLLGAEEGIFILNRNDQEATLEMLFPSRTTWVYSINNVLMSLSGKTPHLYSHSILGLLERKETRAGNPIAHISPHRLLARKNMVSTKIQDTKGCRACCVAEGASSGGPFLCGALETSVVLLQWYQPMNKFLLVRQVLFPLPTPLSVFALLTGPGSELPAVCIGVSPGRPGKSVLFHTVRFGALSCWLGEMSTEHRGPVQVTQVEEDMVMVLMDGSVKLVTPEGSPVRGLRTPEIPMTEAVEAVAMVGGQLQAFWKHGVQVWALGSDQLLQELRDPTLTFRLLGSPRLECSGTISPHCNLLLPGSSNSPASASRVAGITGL

SMILES | IC50
Cc1c(-c2cc3nc(Nc4cc5c(cc4F)CCN(C(C)C)C5)ncc3c(N)c2F)cnc2c1NCCO2 [WO2022098806, Compound 2-171] | 0.05 nM
Cc1ccc(F)cc1-c1cc2nc(Nc3ccc(CS(C)(=O)=O)cc3)ncc2c(N)c1F [WO2022098806, Compound 2-172] | 25 nM
CCc1ccc(Nc2ncc3c(N)c(F)c(-c4cnc5c(c4C)NCCO5)cc3n2)cn1 [WO2022098806, Compound 2-173] | 0.13 nM
Cc1ccc(F)cc1-c1cc2nc(Nc3ccc4c(c3)CN(C)CC4)ncc2c(N)c1F [WO2022098806, Compound 2-174] | 11 nM
COc1cc(C2CC2)ccc1Nc1ncc2c(N)c(F)c(-c3cnc4c(c3C)NCCO4)cc2n1 [WO2022098806, Compound 2-176] | 17 nM
Cc1c(-c2cc3nc(Nc4ccc(CC(C)(C)O)cc4)ncc3c(N)c2F)cnc2c1NCCO2 [WO2022098806, Compound 2-178] | 0.09 nM
Cc1c(-c2c(F)c(N)c3cnc(Nc4ccc5c(c4)CN(C)CC5)nc3c2Cl)cnc2c1NCCO2 [WO2022098806, Compound 2-180] | 0.06 nM and 0.02 nM
Cc1c(-c2cc3nc(Nc4cnc5c(c4)CN(C)CC5)ncc3c(N)c2F)cnc2c1NCCO2 [WO2022098806, Compound 2-183] | 0.04 nM
Cc1c(-c2c(F)c(N)c3cnc(Nc4cc5c(cc4F)CCN(C)C5)nc3c2Cl)cnc2c1NCCO2 [WO2022098806, Compound 2-184] | 0.09 nM
CNC(=O)C(F)(F)c1ccc(Nc2ncc3c(N)c(F)c(-c4cnc5c(c4C)NCCO5)cc3n2)cc1 [WO2022098806, Compound 2-186] | 0.14 nM
CNC(=O)C(C)(C)c1ccc(Nc2ncc3c(N)c(F)c(-c4cnc5c(c4C)NCCO5)cc3n2)cc1 [WO2022098806, Compound 2-187] | 0.08 nM
COc1cc2c(cc1Nc1ncc3ccc(N4CC5(CCOC5)OC4=O)cc3n1)CN(C)CC2 (stereo unspecified) [WO2022098806, Compound 3-3] | 391 nM
COc1cc2c(cc1Nc1ncc3ccc(N4CC(CO)OC4=O)cc3n1)CN(C)CC2 (stereo unspecified) [WO2022098806, Compound 3-4] | 9.36 nM
COc1cc2c(cc1Nc1ncc3ccc(N4CC5(CCCNCC5)OC4=O)cc3n1)CN(C)CC2 (stereo unspecified) [WO2022098806, Compound 3-5] | 205 nM and 93 nM
COc1cc2c(cc1Nc1ncc3ccc(N4CC(C)(CO)OC4=O)cc3n1)CN(C)CC2 (stereo unspecified) [WO2022098806, Compound 3-7] | 45 nM
COc1cc2c(cc1Nc1ncc3ccc(N4CC(CN)OC4=O)cc3n1)CN(C)CC2 (stereo unspecified) [WO2022098806, Compound 3-11] | 82 nM
CNCC1CN(c2ccc3cnc(Nc4cc5c(cc4OC)CCN(C)C5)nc3c2)C(=O)O1 (stereo unspecified) [WO2022098806, Compound 3-12] | 94 nM
CC[C@@H]1COC(=O)N1c1ccc2cnc(Nc3cc4c(cc3OC)CCN(C)C4)nc2c1 [WO2022098806, Compound 3-13] | 1.05 nM
CC[C@H]1COC(=O)N1c1ccc2cnc(Nc3cc4c(cc3OC)CCN(C)C4)nc2c1 [WO2022098806, Compound 3-14] | 25 nM
CC[C@@H]1COC(=O)N1c1cc(N)c2cnc(Nc3cc4c(cc3OC)CCN(C)C4)nc2c1 [WO2022098806, Compound 3-15] | 3.24 nM
CC[C@H]1COC(=O)N1c1cc(N)c2cnc(Nc3cc4c(cc3OC)CCN(C)C4)nc2c1 [WO2022098806, Compound 3-16] | 0.17 nM
COc1cc2c(cc1Nc1ncc3c(N)cc(N4C(=O)OC[C@@H]4C)cc3n1)CN(C)CC2 [WO2022098806, Compound 3-17] | 0.08 nM
COc1cc2c(cc1Nc1ncc3ccc(N4CCCC(CN5CCCC5=O)C4)cc3n1)CN(C)CC2 (stereo unspecified) [WO2022098806, Compound 3-20] | 771 nM

SMILES | IC50
COc1cc2c(cc1Nc1ncc3ccc(Nc4ccc5c(c4)C(=O)NCC5)cc3n1)CN(C)CC2 [WO2022098806, Compound 3-21] | 30 nM
COc1cc2c(cc1Nc1ncc3ccc(NCC4CNC(=O)O4)cc3n1)CN(C)CC2 (stereo unspecified) [WO2022098806, Compound 3-26] | 149 nM
COc1cc2c(cc1Nc1ncc3ccc(Nc4cccc(C#N)n4)cc3n1)CN(C)CC2 [WO2022098806, Compound 3-27] | 23 nM
COc1cc2c(cc1Nc1ncc3ccc(Nc4cccc(CO)n4)cc3n1)CN(C)CC2 [WO2022098806, Compound 3-29] | 21 nM
COc1cc2c(cc1Nc1ncc3ccc(N(C)CC4CNC(=O)O4)cc3n1)CN(C)CC2 (stereo unspecified) [WO2022098806, Compound 3-30] | 148 nM
COc1cc2c(cc1Nc1ncc3ccc(Nc4cccc(CO)c4)cc3n1)CN(C)CC2 [WO2022098806, Compound 3-31] | 29 nM
COc1cc2c(cc1Nc1ncc3ccc(Nc4cccc(S(C)(=O)=O)c4)cc3n1)CN(C)CC2 [WO2022098806, Compound 3-33] | 18 nM
COc1cc2c(cc1Nc1ncc3ccc(Nc4nc(S(C)(=O)=O)ccc4F)cc3n1)CN(C)CC2 [WO2022098806, Compound 3-36] | 4.18 nM
COc1cc2c(cc1Nc1ncc3ccc(NCC4CCS(=O)(=O)C4)cc3n1)CN(C)CC2 (stereo unspecified) [WO2022098806, Compound 3-37] | 73 nM
COc1cc2c(cc1Nc1ncc3ccc(NC4CCCC(O)C4)cc3n1)CN(C)CC2 (stereo unspecified) [WO2022098806, Compound 3-39] | 228 nM
COc1cc2c(cc1Nc1ncc3ccc(NCC4CCC(=O)N4)cc3n1)CN(C)CC2 (stereo unspecified) [WO2022098806, Compound 3-45] | 292 nM
COc1cc2c(cc1Nc1ncc3ccc(NC4CCN(C)C4=O)cc3n1)CN(C)CC2 (stereo unspecified) [WO2022098806, Compound 3-49] | 97 nM and 98 nM
COc1cc2c(cc1Nc1ncc3ccc(N4CC(O)(C(F)(F)F)C4)cc3n1)CN(C)CC2 [WO2022098806, Compound 3-54] | 189 nM
COc1cc2c(cc1Nc1ncc3ccc(NC[C@@H]4CC(=O)N(C)C4)cc3n1)CN(C)CC2 [WO2022098806, Compound 3-59] | 365 nM
COc1cc2c(cc1Nc1ncc3ccc(N4CC5CCS(=O)(=O)C5C4)cc3n1)CN(C)CC2 (stereo unspecified) [WO2022098806, Compound 3-60] | 807 nM
COc1cc2c(cc1Nc1ncc3ccc(NCC4(C)CCC4)cc3n1)CN(C)CC2 [WO2022098806, Compound 3-62] | 111 nM
COc1cc2c(cc1Nc1ncc3ccc(NCC4(C)CCOC4)cc3n1)CN(C)CC2 (stereo unspecified) [WO2022098806, Compound 3-75] | 90 nM
COc1cc(S(C)(=O)=O)ccc1Nc1ncc2c(N)cc(N3C(=O)OC[C@H]3C)cc2n1 [WO2022098806, Compound 3-76] | 0.1 nM
CNC(=O)c1ccc(Nc2ncc3c(N)cc(N4C(=O)OC[C@@H]4C)cc3n2)c(OC)c1 [WO2022098806, Compound 3-79] | 0.25 nM
COc1cc2c(cc1Nc1ncc3c(N)cc(Nc4cc(CO)ccn4)cc3n1)CN(C)CC2 [WO2022098806, Compound 3-80] | 2.81 nM
COc1cc2c(cc1Nc1ncc3ccc(OCc4ccc(N5CCNCC5)nc4)cc3n1)CN(C)CC2 [WO2022098806, Compound 4-1] | 15 nM
COc1cc2c(cc1Nc1ncc3ccc(Oc4ccc(C(=O)N5CCN(C(C)=O)CC5)cc4)cc3n1)CN(C)CC2 [WO2022098806, Compound 4-7] | 224 nM
COc1cc2c(cc1Nc1ncc3ccc(Oc4ccc5c(c4)CNCC5)cc3n1)CN(C)CC2 [WO2022098806, Compound 4-9] | 2.19 nM
